According to patent US9115101B2 (Genentech, Inc., priority 2012, dated 2015):
pIC50: −log10 of the molar value.

These compounds were tested against T1, RORc ligand binding domain (Homo sapiens, UniProt P51449) (assay: In Vitro RORc Ligand Binding Assay (25-[3H]hydroxycholesterol radioligand filtration)). Conditions: In Vitro RORc Ligand Binding Assay; Table 4; read-out: RORc IC50.
T1 construct: host or cells: E. coli
T1 sequence (P51449 269-508 limits assumed): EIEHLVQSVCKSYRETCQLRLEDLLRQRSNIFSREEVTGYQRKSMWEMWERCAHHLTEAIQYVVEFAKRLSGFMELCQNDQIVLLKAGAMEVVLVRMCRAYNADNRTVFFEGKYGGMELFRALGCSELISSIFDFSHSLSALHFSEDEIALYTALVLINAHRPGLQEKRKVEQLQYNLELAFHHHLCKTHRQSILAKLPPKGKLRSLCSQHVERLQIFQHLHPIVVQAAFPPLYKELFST

| SMILES | pIC50 |
| --- | --- |
| C[C@H]1CCC(c2ccccc2)S(=O)(=O)N1Cc1ccc(NC2CCN(S(C)(=O)=O)CC2)c(F)c1 (stereo partly drawn) [Example 236, [2-Fluoro-4-((3S)-methyl-1,1-dioxo-6-phenyl-[1,2]thiazinan-2-ylmethyl)-phenyl]-(1-methanesulfonyl-piperidin-4-yl)-amine] | 8.22 |
| C[C@H]1CCC(c2ccccc2)S(=O)(=O)N1Cc1ccc(N2CCC(n3cnnc3)CC2)cc1 (single isomer, unassigned) [Example 214] | 6.62 |
| CC(=O)N1CCN(c2cnc(CN3[C@@H](C)CCC(c4ccccc4)S3(=O)=O)cn2)CC1 (single isomer, unassigned) [Example 179] | 6.03 |
| C[C@H]1CCC(c2ccccc2)S(=O)(=O)N1Cc1ccc(C(=O)N2CC(c3cc[nH]n3)C2)cc1 (stereo partly drawn) [Example 297, [4-((3S)-Methyl-1,1-dioxo-6-phenyl-[1,2]thiazinan-2-ylmethyl)-phenyl]-[3-(1H-pyrazol-3-yl)-azetidin-1-yl]-methanone] | 5.57 |
| C[C@H]1CCC(c2ccccc2)S(=O)(=O)N1Cc1ccc(OC2CCN(S(C)(=O)=O)CC2)cc1 (single isomer, unassigned) [Example 44] | 7.85 |
| C[C@H]1CCC(c2ccccc2)S(=O)(=O)N1Cc1ccc(C(=O)N2CCC3(COC3)C2)cc1 (stereo partly drawn) [Example 354, [4-((3S)-Methyl-1,1-dioxo-6-phenyl-[1,2]thiazinan-2-ylmethyl)-phenyl]-(2-oxa-6-aza-spiro[3.4]oct-6-yl)-methanone] | 5.52 |
| C[C@H]1CCC(c2ccccc2)S(=O)(=O)N1Cc1ccc(C(=O)NCCC2CCCN(S(C)(=O)=O)C2)cc1 (stereo partly drawn) [Example 371, N-[2-(1-Methanesulfonyl-piperidin-3-yl)-ethyl]-4-((3S)-methyl-1,1-dioxo-6-phenyl-[1,2]thiazinan-2-ylmethyl)-benzamide] | 5.44 |
| C[C@H]1CCC(c2ccccc2)S(=O)(=O)N1Cc1ccc(N2CCN(C3=CC(=O)CC(C)(C)C3)CC2)cc1F (stereo partly drawn) [Example 187, 3-{4-[3-Fluoro-4-((3S)-3-methyl-1,1-dioxo-6-phenyl-[1,2]thiazinan-2-ylmethyl)-phenyl]-piperazin-1-yl}-5,5-dimethyl-cyclohex-2-enone] | 6.19 |
| CC(=O)N1CCN(c2ccc(CN3CCCC(c4ccc(F)cc4)S3(=O)=O)c(F)c2)CC1 (single isomer, unassigned) [Example 12, 1-(4-{3-Fluoro-4-[6-(4-fluoro-phenyl)-1,1-dioxo-[1,2]thiazinan-2-ylmethyl]-phenyl}-piperazin-1-yl)-ethanone] | 6.62 |
| CC(=O)N1CCN(c2ccc(CN3CCOCC(c4ccccc4)S3(=O)=O)c(F)c2)CC1 (single isomer, unassigned) [Example 23, 1-{4-[4-(4,4-Dioxo-3-phenyl-[1,4,5]oxathiazepan-5-ylmethyl)-3-fluoro-phenyl]-piperazin-1-yl}-ethanone] | 7.35 |
| C[C@H]1CCC(c2ccccc2)S(=O)(=O)N1Cc1ccc(C(=O)NCCCN2CCCC2=O)cc1 (stereo partly drawn) [Example 272, 4-((3S)-Methyl-1,1-dioxo-6-phenyl-[1,2]thiazinan-2-ylmethyl)-N-[3-(2-oxo-pyrrolidin-1-yl)-propyl]-benzamide] | 5.54 |
| C[C@H]1CCC(c2ccccc2)S(=O)(=O)N1Cc1ccc(N2CCC(c3ccn[nH]3)CC2)cc1F (single isomer, unassigned) [Example 211] | 7.70 |
| CC(=O)N1CCN(c2ccc(CN3C[C@H](C)OCC(c4ccccc4)S3(=O)=O)c(F)c2)CC1 (single isomer, unassigned) [Example 29] | 7.62 |
| C[C@H]1CCC(c2ccccc2)S(=O)(=O)N1Cc1ccc(C(=O)N2CCN(S(C)(=O)=O)CC2)cc1 (stereo partly drawn) [Example 287, (4-Methanesulfonyl-piperazin-1-yl)-[4-((3S)-methyl-1,1-dioxo-6-phenyl-[1,2]thiazinan-2-ylmethyl)-phenyl]-methanone] | 6.69 |
| C[C@H]1CCC(c2ccccc2)S(=O)(=O)N1Cc1ccc(N2CC3(CCOCC3)C2)cc1F (single isomer, unassigned) [Example 84] | 7.64 |
| CS(=O)(=O)N1CCC(Nc2ccc(CN3CCCCC(c4ccccc4)S3(=O)=O)cc2)CC1 (single isomer, unassigned) [Example 324, [4-(1,1,-Dioxo-7-phenyl-[1,2]thiazepan-2-ylmethyl)-phenyl]-(1-methanesulfonyl-piperidin-4-yl)-amine] | 8.52 |
| CC(=O)N1CCN(c2ccc(CN3CC(C)(C)CC(c4ccccc4)S3(=O)=O)c(F)c2)CC1 (single isomer, unassigned) [Example 168, 1-{4-[4-(4,4-Dimethyl-1,1-dioxo-6-phenyl-[1,2]thiazinan-2-ylmethyl)-3-fluoro-phenyl]-piperazin-1-yl}-ethanone] | 6.00 |

More lines, now with the values ahead:

| pIC50 | SMILES |
| --- | --- |
| 6.45 | CC(=O)N1CCN(c2ccc(CN3C[C@@H](C)CC(c4ccccc4)S3(=O)=O)c(F)c2)CC1 (single isomer, unassigned) [Example 197] |
| 8.00 | CN/C(=N\C#N)N1CCN(c2ccc(CN3[C@@H](C)CCC(c4ccccc4)S3(=O)=O)c(F)c2)CC1 (stereo partly drawn) [Example 124, 1-(4-{3-Fluoro-4-[(3S)-6-phenyl-3-methyl-1,1-dioxo-[1,2]thiazinan-2-ylmethyl]-phenyl}-piperazin-1-yl)-(Z)-N′-cyano-N-methylacetimid-amide] |
| 7.05 | C[C@H]1CCC(c2ccccc2)S(=O)(=O)N1Cc1ccc(N2CCN(C3=CC(=O)CC3)CC2)cc1F (stereo partly drawn) [Example 123, 3-{4-[3-Fluoro-4-((3S)-3-methyl-1,1-dioxo-6-phenyl-[1,2]thiazinan-2-ylmethyl)-phenyl]-piperazin-1-yl}-cyclopent-2-enone] |
| 5.72 | CC(=O)N1CCN(c2ccc(CN3[C@@H](C)CCCC(c4ccccc4)S3(=O)=O)c(F)c2)CC1 (single isomer, unassigned) [Example 320] |
| 6.68 | COc1cc(N2CCN(C(C)=O)CC2)ccc1CN1[C@@H](C)CCC(c2ccccc2)S1(=O)=O (single isomer, unassigned) [Example 160] |
| 5.35 | C[C@H]1CCC(c2ccccc2)S(=O)(=O)N1Cc1ccc(N2CCNCC2)cc1F (single isomer, unassigned) [Example 96] |
| 6.09 | C[C@H]1CCC(c2ccccc2)S(=O)(=O)N1Cc1ccc(N2CCCNCC2)cc1F (single isomer, unassigned) [Example 88] |
| 5.80 | C[C@H]1CCC(c2ccccc2)S(=O)(=O)N1Cc1ccc(N2CCn3cnnc3C2)cc1F (single isomer, unassigned) [Example 148] |
| 7.41 | C[C@H]1CCC(c2ccccc2)S(=O)(=O)N1Cc1ccc(N2CCC(/C(N)=N/O)CC2)cc1F (stereo partly drawn) [Example 233, 1-[3-Fluoro-4-((3S)-methyl-1,1-dioxo-6-phenyl-[1,2]thiazinan-2-ylmethyl)-phenyl]-N-hydroxy-piperidine-4-carboxamidine] |
| 7.14 | C[C@H]1CCC(c2ccccc2)S(=O)(=O)N1Cc1ccc(N2CCN(C=O)CC2)cc1F (stereo partly drawn) [Example 115, 4-[3-Fluoro-4-((3S)-3-methyl-1,1-dioxo-6-phenyl-[1,2]thiazinan-2-ylmethyl)-phenyl]-piperazine-1-carbaldehyde] |
| 8.22 | CC(=O)N1CCN(c2ccc(CN3[C@@H](C)CCC(c4cccc(C)c4)S3(=O)=O)c(F)c2)CC1 (single isomer, unassigned) [Example 192] |
| 7.39 | C[C@H]1CCC(c2ccccc2)S(=O)(=O)N1Cc1ccc(N2CCN(C(=O)CC#N)CC2)cc1F (single isomer, unassigned) [Example 71] |
| 6.72 | C[C@H]1CCC(c2ccccc2)S(=O)(=O)N1Cc1ccc(N2CCC(c3nnn[nH]3)CC2)cc1F (single isomer, unassigned) [Example 142] |
| 7.80 | CC(=O)N1CCN(c2ccc(CN3[C@@H](C)CCC(c4ccccc4)S3(=O)=O)c(F)c2)CC1 (single isomer, unassigned) [Example 17] |
| 8.22 | CC(=O)N1CCN(c2ccc(CN3[C@@H](C)CCC(c4ccccc4)S3(=O)=O)c(F)c2)[C@@H](C)C1 (stereo partly drawn) [Example 237, 1-{4-[3-Fluoro-4-((3S)-methyl-1,1-dioxo-6-phenyl-[1,2]thiazinan-2-ylmethyl)-phenyl]-3-methyl-piperazin-1-yl}-ethanone] |
| 8.10 | CC(=O)N1CCN(c2ccc(CN3[C@@H](C)CCC(c4ccccc4)S3(=O)=O)c(F)c2)C[C@@H]1C (stereo partly drawn) [Example 238, 1-{4-[3-Fluoro-4-((3S)-methyl-1,1-dioxo-6-phenyl-[1,2]thiazinan-2-ylmethyl)-phenyl]-2-methyl-piperazin-1-yl}-ethanone] |

Same assay, conditions: read-out: RORc IC50

| pIC50 | SMILES |
| --- | --- |
| 6.50 | C[C@H]1CCC(c2ccccc2)S(=O)(=O)N1Cc1ccc(N2CC(n3cnnc3)C2)cc1F (single isomer, unassigned) [Example 429] |
| 6.64 | C[C@H]1CCC(c2ccccc2)S(=O)(=O)N1Cc1ccc(N2CCN3C(=O)COCC3C2)cc1F (stereo partly drawn) [Example 417, 8-[3-Fluoro-4-((3S)-methyl-1,1-dioxo-6-phenyl-[1,2]thiazinan-2-ylmethyl)-phenyl]-hexahydro-pyrazino[2,1-c][1,4]oxazin-4-one] |
| 5.80 | CC(=O)N1CCN(c2ccc(CN3[C@@H](C)CCC(c4ccccc4)S3(=O)=O)c(F)c2)C[C@H]1C(=O)NCCO (stereo partly drawn) [Example 399, (S)-1-Acetyl-4-[3-fluoro-4-((3S)-methyl-1,1-dioxo-6-phenyl-[1,2]thiazinan-2-ylmethyl)-phenyl]-piperazine-2-carboxylic acid (2-hydroxy-ethyl)-amide] |
| 7.60 | C[C@H]1CCC(c2ccccc2)S(=O)(=O)N1Cc1ccc(NCC2CCOCC2)cc1F (stereo partly drawn) [Example 445, [3-Fluoro-4-((3S)-methyl-1,1-dioxo-6-phenyl-[1,2]thiazinan-2-ylmethyl)-phenyl]-(tetrahydro-pyran-4-ylmethyl)-amine] |
